In publication PMC11859031, “Assessment of the In Vitro Biological Activities of Schiff Base-Synthesized Copper Oxide Nanoparticles as an Anti-Diabetic, Anti-Alzheimer, and Anti-Cancer Agent” (Pharmaceutics, 2025):
In brackets after ≈: the same amount, converted by molar mass.

What was measured:
[1] = system: human hepatocellular carcinoma (HepG-2) cell line; experiment: MTT cytotoxicity, HepG-2
[2] = system: human lung cancer (A549) cell line; experiment: MTT cytotoxicity, A549
[3] = system: Bcl-2 in BJ-1 cells; experiment: Bcl-2 ELISA in treated BJ-1 cells; assay type: cell-based, human; details: BJ-1 cells treated at the IC50 value, mean ± SE, n = 3
Procedure: (§1) Following the treatment of HepG-2, Caco-2, A549, and BJ-1 cells with the SB-CuO-NPs at their respective IC50 values, as illustrated in Figure 9 and detailed in Table 5, an assessment of the activities of the caspase-3 and Bcl-2 enzymes was conducted in the treated cells. […] This mechanism ultimately triggers apoptosis. Additionally, the increased activity of caspase-3 results in a decrease in the expression of cyclin D1 and CDK-2 mRNA, thereby promoting the arrest of the G1 phase of the cell cycle. Othman et al. further noted that the biosynthesized M-NPs facilitate apoptosis by inhibiting the expression of the PI3K/AKT and Ras/Raf/ERK protein signaling pathways.
(§2) Invitrogen Corporation, following the manufacturer's instructions.

[4] = target: T1, COX-1 (Ovis aries, UniProt P05979); experiment: COX-1 inhibition assay (Cayman kit); assay type: biochemical, ovine; details: mean ± SE, n = 3
T1 construct: purchased Cayman 560131
T1 sequence (P05979 25-600): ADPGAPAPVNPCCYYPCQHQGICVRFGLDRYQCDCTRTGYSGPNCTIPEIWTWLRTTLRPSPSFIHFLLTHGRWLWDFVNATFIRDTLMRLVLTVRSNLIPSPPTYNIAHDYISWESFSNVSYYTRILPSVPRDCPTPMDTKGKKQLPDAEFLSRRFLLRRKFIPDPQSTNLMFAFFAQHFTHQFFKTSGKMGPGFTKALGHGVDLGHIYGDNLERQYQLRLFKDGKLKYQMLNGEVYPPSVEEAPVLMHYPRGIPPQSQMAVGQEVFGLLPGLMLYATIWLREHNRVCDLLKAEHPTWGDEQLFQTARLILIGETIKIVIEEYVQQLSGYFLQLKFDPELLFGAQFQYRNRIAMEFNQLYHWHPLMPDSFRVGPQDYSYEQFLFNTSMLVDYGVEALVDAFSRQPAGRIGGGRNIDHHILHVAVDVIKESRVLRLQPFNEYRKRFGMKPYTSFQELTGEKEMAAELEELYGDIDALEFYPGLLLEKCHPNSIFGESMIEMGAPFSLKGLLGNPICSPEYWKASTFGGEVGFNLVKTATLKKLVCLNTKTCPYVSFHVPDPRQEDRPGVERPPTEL

[5] = target: T2, COX-2 (Homo sapiens, UniProt P35354); experiment: COX-2 inhibition assay (Cayman kit); assay type: biochemical; details: mean ± SE, n = 3
T2 construct: purchased Cayman 560131
T2 sequence (P35354 18-604): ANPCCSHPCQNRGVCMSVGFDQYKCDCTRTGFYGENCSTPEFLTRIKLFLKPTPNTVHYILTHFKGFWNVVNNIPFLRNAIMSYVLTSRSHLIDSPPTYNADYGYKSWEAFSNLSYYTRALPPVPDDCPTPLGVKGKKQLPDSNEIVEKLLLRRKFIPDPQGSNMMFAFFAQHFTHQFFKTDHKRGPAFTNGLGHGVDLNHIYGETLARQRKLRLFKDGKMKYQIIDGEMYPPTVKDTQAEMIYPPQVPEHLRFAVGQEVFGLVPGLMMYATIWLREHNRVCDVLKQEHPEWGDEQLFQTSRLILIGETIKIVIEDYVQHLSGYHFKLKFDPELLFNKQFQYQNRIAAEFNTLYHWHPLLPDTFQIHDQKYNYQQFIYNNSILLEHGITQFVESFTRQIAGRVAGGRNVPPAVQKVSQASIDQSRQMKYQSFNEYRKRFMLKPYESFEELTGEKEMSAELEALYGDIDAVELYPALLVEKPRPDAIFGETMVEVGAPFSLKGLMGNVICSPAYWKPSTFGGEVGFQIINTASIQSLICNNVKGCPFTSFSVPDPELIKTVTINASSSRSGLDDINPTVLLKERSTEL

[6] = system: caspase-3 in A549 cells; experiment: Caspase-3 ELISA in treated A549 cells; assay type: cell-based, human; details: A549 cells treated at the IC50 value, mean ± SE, n = 3
Procedure: as §1, §2

[7] = system: human colon cancer (Caco-2) cell line; experiment: MTT cytotoxicity, Caco-2
[8] = system: Bcl-2 in A549 cells; experiment: Bcl-2 ELISA in treated A549 cells; assay type: cell-based, human; details: A549 cells treated at the IC50 value, mean ± SE, n = 3
Procedure: as §1, §2

[9] = DPPH radical scavenging; details: mean ± SE, n = 3
Procedure: The 1,1-Diphenyl-2-picryl-hydrazyl (DPPH) radical scavenging activities were evaluated using the method described by Rahman et al. An antioxidant substance capable of donating a hydrogen atom to a solution containing DPPH- can reduce the stable free radical, causing the solution to change color from violet to pale yellow.
The remaining DPPH- radical was quantified by measuring the intensity of a light-purple colored DPPH methanol solution in the visible range at 518 nm using a spectroscopic method. Two mill iliters of a DPPH solution (100 µ M) in ethanol were mixed with 2 mL of the sample (at each concentration). The reaction mixture for each concentration was thoroughly vortexed and then incubated in the dark at room temperature for 30 minutes. The absorbance was then measured spectrophotometrically at 518 nm against a blank (ethanol). For the control, 2 mL of ethanol was added instead of the sample and run simultaneously with the test.
Ascorbic acid was used at the same concentrations as a positive control. P ercent […]
inhibition of the DPPH free radical was calculated. […]

Cc1nn(-c2ccccc2)c(Cl)c1C=NN=C1C(=O)Nc2ccccc21 [SB]
viability at 31.13 µg/mL ([1]; HepG2): 87.6% | viability at 62.5 µg/mL ([1]; HepG2): 74.6% | viability at 125 µg/mL ([1]; HepG2): 53.1% | viability at 250 µg/mL ([1]; HepG2): 40.2% | viability at 500 µg/mL ([1]; HepG2): 19.3% | IC50 ([1]; HepG2, 48 h, read-out: Median Inhibitory Concentration (IC50) HepG-2): 127 ± 3.13 µg/mL (≈ 350 µM) | viability at 31.13 µg/mL ([2]; A549): 86.2% | viability at 62.5 µg/mL ([2]; A549): 70.3% | viability at 125 µg/mL ([2]; A549): 44.8% | viability at 250 µg/mL ([2]; A549): 38.5% | viability at 500 µg/mL ([2]; A549): 18.8% | IC50 ([2]; A549, 48 h, read-out: Median Inhibitory Concentration (IC50) A549): 110 ± 2.49 µg/mL (≈ 303 µM) | Bcl-2 [3]: 4.98 ± 0.03 ng/mL | inhibition at 100 µg/mL ([4]; at 100 µg/mL, read-out: COX-1 Inhib. (%)): 31.61 ± 0.18% | IC50 [4]: 27.1 µM | inhibition at 100 µg/mL ([5]; at 100 µg/mL, read-out: COX-2 Inhib. (%)): 33.86 ± 0.18% | IC50 [5]: 19.7 µM | Caspase-3 [6]: 134.94 ± 0.18 pg/mL | viability at 31.13 µg/mL ([7]; Caco-2): 86% | viability at 62.5 µg/mL ([7]; Caco-2): 72.2% | viability at 125 µg/mL ([7]; Caco-2): 48.6% | viability at 250 µg/mL ([7]; Caco-2): 38.4% | viability at 500 µg/mL ([7]; Caco-2): 18.6% | IC50 ([7]; Caco-2, 48 h, read-out: Median Inhibitory Concentration (IC50) Caco-2): 115 ± 3.25 µg/mL (≈ 317 µM) | Bcl-2 [8]: 8.26 ± 0.03 ng/mL | Scavenging activity DPPH Inhib. (%) ([9]; at 100 µg/mL): 44.54 ± 0.18% | Scavenging activity DPPH IC50 [9]: 6.24 ± 0.01 µg/mL
